According to patent US8679842B2, “Method for increasing the pool of Ngn3+ endocrine progenitor cells and pancreatic endocrine cell mass” (Assistance Publique—Hopitaux de Paris, priority 2009, dated 2014):
Entries after “also recorded” stand apart in the source; their conditions may differ.

Tests used:
[1] = system: early progenitors expressing PDX1; assay: BrdU incorporation: proliferation of early PDX1 progenitors in cultured embryonic pancreases; assay type: cell-based, rat; settings: 100 μM; 24 h culture, BrdU during last hour (FIG. 3D); control 31.24%±2.8%
Description: Dorsal pancreatic rudiments were cultured on 0.45 μm filters (Millipore) at the air-medium interface in a 35 mm sterile Petri dishes containing 2 ml RPMI-1640 medium (Invitrogen) supplemented with 100 U/ml penicillin, 100 μg/ml streptomycin, 10 mmol/L HEPES, 2 mmol/L L-glutamine, 1× non-essential aminoacids (Invitrogen) and 10% heat-inactivated fetal calf serum (HyClone, Logan, Utah, USA). Glibenclamide (MP Biomedical) and nifedipine (Sigma), used at the indicated concentrations, were first dissolved as concentrated solutions in dimethylsulfoxide DMSO (Sigma), the final concentration of DMSO in the culture medium was less than 0.5% (vol/vol). The culture medium was changed every day. […]
Quantification—To quantify the surface area of insulin, glucagon, PCSK1/3, CPA and amylase-expressing cells, all sections of each pancreatic rudiment were digitized. […] The surface of insulin, glucagon, PCSK1/3, CPA, amylase, and Hoechst stainings were quantified using Iplab (Scanalytics). […] To measure proliferation of the early progenitors expressing PDX1, we counted the frequency of BrdU positive progenitors expressing PDX1 among 3000 early progenitors expressing PDX1 per rudiment. To quantify the absolute number of NGN3-expressing cells, pancreatic rudiments were sectioned and all sections were stained with an anti-NGN3 antibody. Positive cells were counted on all sections of each pancreatic rudiment. […]

[2] = system: E13.5 Rat embryonic pancreases; assay: Immunohistochemistry and quantification of stained surface area / cell number in cultured embryonic pancreases; assay type: cell-based
Text: (§1) Pregnant Wistar rats were purchased from the Janvier Breeding centre (CERJ, LeGenet, France). The first day postcoitum was taken as embryonic day (E) 0.5. Pregnant rats were killed with CO2 asphyxiation according to guidelines issued by the French Animal Care Committee. Dorsal pancreatic buds from E13.5 rat embryos were dissected as described previously (Miralles et al., 1998). Briefly, the stomach, pancreas and a small portion of the intestine were dissected together, and then the pancreas primordium was isolated.
(§2) Dorsal pancreatic rudiments were cultured on 0.45 μm filters (Millipore) at the air-medium interface in a 35 mm sterile Petri dishes containing 2 ml RPMI-1640 medium (Invitrogen) supplemented with 100 U/ml penicillin, 100 μg/ml streptomycin, 10 mmol/L HEPES, 2 mmol/L L-glutamine, 1× non-essential aminoacids (Invitrogen) and 10% heat-inactivated fetal calf serum (HyClone, Logan, Utah, USA). Glibenclamide (MP Biomedical) and nifedipine (Sigma), used at the indicated concentrations, were first dissolved as concentrated solutions in dimethylsulfoxide DMSO (Sigma), the final concentration of DMSO in the culture medium was less than 0.5% (vol/vol). The culture medium was changed every day. Glibenclamide and nifedipine were added to the media daily. The cultures were incubated at 37° C. in a humidified atmosphere composed of 95% air and 5% CO2. At the end of the culture period, the pancreases were photographed, and fixed as described below or harvested for RNA extraction
Immunochemistry—The pancreatic rudiments were fixed in 10% formalin, pre-embedded in agarose gel (4% of type VII low-gelling-temperature agarose (Sigma) in H2O) and embedded in paraffin. Immunohistochemistry was performed on 4-μm paraffin sections as previously described (Duvillie et al., 2006). The primary antibodies were mouse anti insulin (1/2000; Sigma), rabbit anti-glucagon (1/1000; Diasorin), rabbit anti-amylase (1/300; Sigma), rabbit anti-carboxypeptidase A (1/600; Biogenesis, Kidlington, Oxford, UK), rabbit anti-PDX1 (1/1000) (Duvillie et al., 2003) mouse anti-BrdUrd5 (1/2; Amersham Biosciences, Buckingham, UK), rabbit anti-PCK1/3, rabbit anti-Ngn3 (1/100, Guillemain et al., 2007), rabbit anti-KIR6.2 and anti-SUR1 (1/100, Santa Cruz). The fluorescent secondary antibodies were fluorescein anti-rabbit antibody (1/200; Jackson Immunoresearch, Baltimore, Md., USA), fluorescein goat anti-rabbit Alexa Fluor 488 (1/400; Invitrogen) and Texas red anti-mouse antibody (1/200; Jackson). Nuclei were stained in blue with Hoechst 33342 (0.3 μg/ml; Invitrogen). Ngn3 detection was performed as previously described (Guillemain et al., 2007) using the Vectastain elite ABC kit (Vector laboratories).
(§3) Quantification—To quantify the surface area of insulin, glucagon, PCSK1/3, CPA and amylase-expressing cells, all sections of each pancreatic rudiment were digitized. Alternate sections were examined to avoid counting the same cell twice. The surface of insulin, glucagon, PCSK1/3, CPA, amylase, and Hoechst stainings were quantified using Iplab (Scanalytics). The stained areas were summed to obtain the total surface area per rudiment in mm^2. To measure proliferation of the early progenitors expressing PDX1, we counted the frequency of BrdU positive progenitors expressing PDX1 among 3000 early progenitors expressing PDX1 per rudiment. To quantify the absolute number of NGN3-expressing cells, pancreatic rudiments were sectioned and all sections were stained with an anti-NGN3 antibody. Positive cells were counted on all sections of each pancreatic rudiment. A minimum of three rudiments was analyzed per condition.

[3] = system: E13.5 Rat embryonic pancreases; assay: E13.5 rat embryonic pancreas organ culture: growth, morphology and toxicity (Hoechst staining); assay type: cell-based
Text: as §1, §2, §3
Using the in vitro model as described above (E13.5 Rat embryonic pancreases cultured at the air/medium interface on a floating filter), we examined the effects of increased concentrations of the sulphonylurea glibenclamide (an inhibitor of KATP channels) on pancreas development. […] Under both conditions, the epithelium grew rapidly, spread into the mesenchyme, and developed lobules. There is no difference in apoptosis in pancreases cultured 7 days without or with 10 and 100 μM glibenclamide as shown by the Hoechst staining of the nuclei (FIG. 1B).

[4] = system: E13.5 Rat embryonic pancreases; assay: Real-time PCR of gene expression in cultured embryonic pancreases; assay type: cell-based
Text: as §1, §2
Total RNA was isolated from pools of at least three pancreases using the Qiagen RNeasy Microkit (Qiagen, Courtaboeuf, France) and reverse transcribed using Superscript reagents (Invitrogen). Real-time PCR was performed with the 7300 Fast real-time PCR system (Applied Bio system) using either Taqman universal PCR universal PCR master mix or SYBR green PCR master mix (Applied Biosystem) with primers and labelled probes specific for each gene. Peptidylpropyl isomerase A/Cyclophilin A was used as endogenous control and E16.5 pancreas cDNA as calibrator sample. The data were analyzed by comparative cycle threshold method (Livak et al., 1997) and presented as the fold change in gene expression. At least three pools of explants were analysed by condition.

## COc1ccc(Cl)cc1C(=O)NCCc1ccc(S(=O)(=O)NC(=O)NC2CCCCC2)cc1 [glibenclamide]
[1]
  percentage of PDX-1+ cells that incorporate BrdU: 32.60%±4.2%
[2]; 100 μM, 5 days of culture (FIG. 3B, 3C)
  number of NGN3+ cells vs control: threefold higher; also recorded: increased number of NGN3 positive nuclei
[2]; 100 μM, 7 days (FIG. 2D)
  surface area occupied by PCSK1/3 staining in PDX-1+ cells vs control: similar
[2]; 100 μM, 7 days (FIG. 2E)
  increase of the number of glucagon-expressing cells: 3.5 fold
[2]; 7 days of culture, vs control, data not shown
  decrease of surface area occupied by the insulin-cell population: 70%
[2]; Glib 5D pancreases, data not shown
  insulin-positive cells (insulin-staining area): significant increase
[2]; Glib pancreases: glibenclamide during the 14-day culture period, data not shown
  insulin-containing cells: less
[2]; Glib-5D: 100 μM only during first 5 days, D9, D11 or D14 (FIG. 4A)
  insulin-expressing cells: large number
[3]; 10 nM, 100 nM, 1, 10 or 100 μM, 7 days of culture (FIG. 1A)
  pancreatic growth vs control: similar
[3]; 100 μM (FIG. 1A)
  branching of the epithelium: more branched
[3]; 10 and 100 μM, 7 days (FIG. 1B)
  apoptosis (Hoechst staining of the nuclei) vs control: no difference
[3]; 10 or 100 μM, 7 days (FIG. 1C)
  toxicity by overall size of pancreases (Hoechst surface area): lack of glibenclamide toxicity
[3]; 7 days, indicated concentrations (FIG. 1B)
  pycnotic nuclei (Hoechst staining): lack of pycnotic nuclei
[4]; 100 μM, D7 (FIG. 2F)
  Pou3F4/Brn4 mRNA level: significant increase
[4]; 100 μM, after 5 days of culture, p<0.001 (FIG. 3A)
  Ngn3 expression (mRNA) increase vs control: sevenfold
[4]; 100 μM, after the D5 peak (D7), p<0.001 (FIG. 3A)
  Ngn3 mRNA level vs control: dramatically higher
[4]; 100 μM, as early as D3 (FIG. 2A)
  insulin expression (mRNA): strongly reduced
[4]; 100 μM, day 1 and 3 (FIG. 3A)
  Ngn3 expression (mRNA) vs control: similar
[4]; 100 μM, over the 7 days of culture (FIG. 2B)
  ZnT-8 expression (mRNA): did not affect
[4]; 100 μM, over the 7 days of culture (FIG. 2C)
  MafA expression (mRNA): did not affect
[4]; D5, data not shown
  NeuroD1 mRNA level vs control: significantly increased
[4]; D7, data not shown
  NeuroD1 mRNA level vs control: reminded enhanced
[4]; Glib 5D, after 9, 11 and 14 days, p<0.01 (FIG. 4C)
  ZnT-8 expression vs control: dramatic increase
[4]; Glib 5D, after 9, 11 and 14 days, p<0.01 (FIG. 4D)
  MafA expression vs control: dramatic increase
[4]; Glib-5D, D7 (FIG. 4B)
  insulin mRNA level vs control: identical
[4]; Glib-5D, D9 (FIG. 4B)
  insulin mRNA level increase vs control: threefold
[4]; Glib-5D, D11 (FIG. 4B)
  insulin mRNA level increase vs control: twofold
[4]; Glib-5D, D14 (FIG. 4B)
  insulin mRNA level increase vs control: threefold
[4]; Glib-5D, after 7 days of culture (FIG. 4C)
  ZnT-8 expression vs control: similar
[4]; Glib-5D, after 7 days of culture (FIG. 4D)
  MafA expression vs control: similar
[4]; after 1 and 3 days of culture, data not shown
  NeuroD1 mRNA levels vs control: similar
[4]; after 7 days of culture, data not shown
  increase in somatostatin expression: two-fold
